Assay results reported in patent US20250109165A1, “CYCLOPHILIN INHIBITORS AND USES THEREOF” (The Broad Institute, Inc., priority 2022, published 2025).
Several values for one entry are separate records, joined by “and”; a condition that tells them apart may be missing. Equal values may be shown once.

Columns and labels:
CypD [1] = target: T1, CypD (Homo sapiens, UniProt P30405); test: Chymotrypsin coupled prolyl-isomerase assay; type: biochemical; details: for IC50: wild-type CypD
T1 construct: PPIF (UniProtKB Entry P30405: res 45-207); made in house; host or cells: E. coli BL21(DE3)
T1 sequence (P30405 45-207): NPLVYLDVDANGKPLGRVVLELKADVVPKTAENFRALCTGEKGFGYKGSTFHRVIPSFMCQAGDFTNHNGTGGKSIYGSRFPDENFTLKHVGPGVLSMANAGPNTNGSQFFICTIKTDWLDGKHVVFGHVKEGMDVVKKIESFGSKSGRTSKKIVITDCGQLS
Description: (§1) IC50 values were calculated to be the value at which 50% inhibition was achieved on each compound's non-linear regression fitted curve.

HeLa cells = test: Fluorescence microscopy on HeLa cells; type: cell-based, human; details: Cy5 labeled compound 6 μM
Description: Fluorescence microscopy on Hela cells. Into 96 well black, clear bottom TC treated plates, cells were seeded in Dulbecco's Modified Eagle Medium (DMEM) supplemented with 10% fetal bovine serum 24 hours prior at a density where wells were ˜80% confluent at time of experiment. Media was removed and cells were then stained with 50 μL of mixture containing Cy5 labeled compound (6 μM) in Kreb's ringer solution HEPES buffered pH 7.2 (KRB), for 1 hour at 37° C. Then, 50 μL Hoechst 33342 (8 μM) and Mitotracker Green FM (0.1 μM) in KRB was added directly to wells containing cells and incubated for 15 minutes at 37° C. Media was removed and cells were washed two times with 100 μL KRB. Cells were then kept adherent to the wells in 100 μL KRB for imaging. Fluorescence microscopy was conducted on an Opera Phenix Plus High-Content Screening System, using Alexa 488, Alexa 647, and Hoescht 33342 channels. Images were analyzed using Harmony 4.9.

[2] = target: T2, human carboxylesterase (CES1) (Homo sapiens, UniProt P23141); test: In vitro esterase activity on ester pro-drug Cy5 derivatives; type: in vitro ADME; details: 0.25 μM CES1, 37° C., 8 hours
T2 sequence (P23141 18-567): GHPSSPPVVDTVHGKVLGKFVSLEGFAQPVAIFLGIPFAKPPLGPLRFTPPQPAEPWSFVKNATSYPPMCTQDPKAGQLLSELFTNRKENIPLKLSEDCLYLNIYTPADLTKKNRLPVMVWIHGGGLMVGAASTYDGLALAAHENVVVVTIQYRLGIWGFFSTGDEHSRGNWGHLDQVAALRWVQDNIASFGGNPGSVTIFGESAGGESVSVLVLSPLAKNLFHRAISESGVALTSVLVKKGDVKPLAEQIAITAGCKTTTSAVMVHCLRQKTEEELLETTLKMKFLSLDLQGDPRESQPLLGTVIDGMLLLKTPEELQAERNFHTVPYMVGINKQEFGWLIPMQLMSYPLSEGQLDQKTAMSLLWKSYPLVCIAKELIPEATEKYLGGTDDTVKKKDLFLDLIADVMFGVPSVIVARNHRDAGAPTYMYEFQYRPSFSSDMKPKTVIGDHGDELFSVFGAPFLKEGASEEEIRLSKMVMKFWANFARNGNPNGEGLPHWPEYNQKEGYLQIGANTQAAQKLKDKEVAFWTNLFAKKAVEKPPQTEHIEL
Description: In vitro esterase activity on ester pro-drug Cy5 derivatives of CypD inhibitors. Into PCR tubes, ester compound (6 μM) and either buffer only, CES1 (0.25 μM), or CES2 (0.25 μM) was diluted in 100 mM Tris-HCl buffer, pH 7.4, with a final DMSO concentration of 1%. Samples were maintained on a PCR block at 37° C. for 8 hours. After incubation, samples were diluted with 20 μL acetonitrile and analyzed by LC-MS at Harvard's Center for Mass Spectroscopy. Di-ester, mono-ester, and di-acid abundances were quantified by total ion count of the primary isotope, and the three compounds were summed and each one expressed as a fraction of the total sum.

CypA = target: T3, CypA (Homo sapiens, UniProt P62937); test: Chymotrypsin coupled prolyl-isomerase assay; type: biochemical; details: wild-type CypA
T3 construct: PPIA (UniProtKB Entry P62937: res 1-165); made in house; host or cells: E. coli BL21(DE3)
T3 sequence (P62937 whole entry): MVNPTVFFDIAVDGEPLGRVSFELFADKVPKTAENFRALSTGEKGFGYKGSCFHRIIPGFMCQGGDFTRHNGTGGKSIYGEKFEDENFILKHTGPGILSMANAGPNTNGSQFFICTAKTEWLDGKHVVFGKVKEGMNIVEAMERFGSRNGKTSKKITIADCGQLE
Description: as §1

CypA E81S/K82R = target: T4, CypA E81S/K82R (Homo sapiens, UniProt P62937, E81S/K82R); test: Chymotrypsin coupled prolyl-isomerase assay; type: biochemical; details: CypA E81S/K82R gatekeeper mutant; read-out: IC50^CypAE81S/K82R
T4 construct: Lane 12-SNA-CypA E81S/K82R (1-165); His6 tag (N, cleaved yes); made in house; host or cells: E. coli BL21(DE3)
T4 sequence (P62937 whole entry E81S/K82R): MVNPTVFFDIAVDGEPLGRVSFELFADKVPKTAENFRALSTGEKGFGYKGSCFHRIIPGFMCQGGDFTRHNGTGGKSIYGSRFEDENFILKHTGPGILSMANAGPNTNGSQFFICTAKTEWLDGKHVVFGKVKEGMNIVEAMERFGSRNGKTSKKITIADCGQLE
Description: as §1

CypB = target: T5, CypB (Homo sapiens, UniProt P23284); test: Chymotrypsin coupled prolyl-isomerase assay; type: biochemical; details: wild-type CypB
T5 construct: PPIB (UniProtKB Entry P23284: res 34-216); His6 tag with TEV site (seen as […]- and […]- forms) (N); made in house; host or cells: E. coli BL21(DE3)
T5 sequence (P23284 34-216): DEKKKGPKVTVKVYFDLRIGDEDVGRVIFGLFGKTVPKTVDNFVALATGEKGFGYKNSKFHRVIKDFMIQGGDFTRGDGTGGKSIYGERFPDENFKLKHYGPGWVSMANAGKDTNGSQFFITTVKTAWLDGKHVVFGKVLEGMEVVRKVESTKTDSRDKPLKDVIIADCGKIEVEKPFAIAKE
Description: as §1

CypB E121S = target: T6, CypB E121S (Homo sapiens, UniProt P23284, E121S); test: Chymotrypsin coupled prolyl-isomerase assay; type: biochemical; details: CypB E121S gatekeeper mutant; read-out: IC50^CypBE121S
T6 construct: Lane 14-SNA-CypB E121S (34-216); His6 tag (N, cleaved yes); made in house; host or cells: E. coli BL21(DE3)
T6 sequence (P23284 34-216 E121S): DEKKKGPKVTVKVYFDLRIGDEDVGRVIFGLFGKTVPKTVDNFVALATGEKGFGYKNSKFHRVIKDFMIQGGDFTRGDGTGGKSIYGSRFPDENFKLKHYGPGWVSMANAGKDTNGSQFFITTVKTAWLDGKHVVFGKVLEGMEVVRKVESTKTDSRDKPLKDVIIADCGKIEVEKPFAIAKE
Description: as §1

CypD K118A = target: T7, CypD K118A (Homo sapiens, UniProt P30405, K118A); test: Chymotrypsin coupled prolyl-isomerase assay; type: biochemical; details: CypD K118A mutant; read-out: IC50^CypDK118A
T7 construct: made in house; host or cells: E. coli BL21(DE3)
T7 sequence (P30405 45-207 K118A): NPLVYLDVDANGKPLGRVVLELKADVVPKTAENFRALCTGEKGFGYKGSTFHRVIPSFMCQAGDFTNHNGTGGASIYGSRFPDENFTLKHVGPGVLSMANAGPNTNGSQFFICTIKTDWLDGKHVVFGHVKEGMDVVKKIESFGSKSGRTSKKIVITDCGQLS
Description: as §1

CypD K118E = target: T8, CypD K118E (Homo sapiens, UniProt P30405, K118E); test: Chymotrypsin coupled prolyl-isomerase assay; type: biochemical; details: CypD K118E mutant; read-out: IC50^CypDK118E
T8 construct: made in house; host or cells: E. coli BL21(DE3)
T8 sequence (P30405 45-207 K118E): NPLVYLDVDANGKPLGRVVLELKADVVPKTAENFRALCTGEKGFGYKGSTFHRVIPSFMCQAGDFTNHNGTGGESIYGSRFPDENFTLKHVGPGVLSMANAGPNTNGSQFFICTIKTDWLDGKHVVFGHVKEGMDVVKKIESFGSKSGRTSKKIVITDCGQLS
Description: as §1

CypD S123E = target: T9, CypD S123E (Homo sapiens, UniProt P30405, S123E); test: Chymotrypsin coupled prolyl-isomerase assay; type: biochemical; details: CypD S123E gatekeeper mutant; read-out: IC50^CypDS123E
T9 construct: made in house; host or cells: E. coli BL21(DE3)
T9 sequence (P30405 45-207 S123E): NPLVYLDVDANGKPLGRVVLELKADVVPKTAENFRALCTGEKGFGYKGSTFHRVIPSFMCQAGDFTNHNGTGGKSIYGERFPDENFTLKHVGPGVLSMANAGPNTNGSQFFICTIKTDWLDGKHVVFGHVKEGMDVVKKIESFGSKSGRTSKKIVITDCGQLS
Description: as §1

CypD [3] = test: Chymotrypsin coupled prolyl-isomerase assay; type: biochemical, human; details: CypD versus wild-type CypA
Description: as §1

cyclophilins = test: Prolyl-isomerase inhibition screen on cyclophilins and cyclophilin mutants; type: biochemical, human; details: for potency on cyclophilin mutants compared to wild-type (in words): mutants as named at the place
Description: as §1

CypE [4] = target: T10, CypE (Homo sapiens, UniProt Q9UNP9); test: Chymotrypsin coupled prolyl-isomerase assay; type: biochemical
T10 construct: PPIE (UniProtKB Entry Q9UNP9: res 131-301); host or cells: E. coli BL21(DE3)
T10 sequence (Q9UNP9 131-301): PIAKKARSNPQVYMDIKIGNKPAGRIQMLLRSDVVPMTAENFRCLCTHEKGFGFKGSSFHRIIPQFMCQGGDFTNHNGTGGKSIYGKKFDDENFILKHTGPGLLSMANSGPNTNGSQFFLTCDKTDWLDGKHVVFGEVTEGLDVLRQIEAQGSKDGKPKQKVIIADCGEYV
Description: as §1

CypE K217A [5] = target: T11, CypE K217A (Homo sapiens, UniProt Q9UNP9, K217A); test: Chymotrypsin coupled prolyl-isomerase assay; type: biochemical
T11 construct: Lane 5-GS-CypE K217A (131-301); His6 tag (N, cleaved yes); made in house; host or cells: E. coli BL21(DE3)
T11 sequence (Q9UNP9 131-301 K217A): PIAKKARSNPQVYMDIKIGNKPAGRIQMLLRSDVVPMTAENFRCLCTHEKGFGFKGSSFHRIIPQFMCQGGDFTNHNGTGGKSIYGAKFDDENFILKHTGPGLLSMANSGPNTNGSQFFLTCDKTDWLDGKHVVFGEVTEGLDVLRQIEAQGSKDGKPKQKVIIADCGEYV
Description: as §1

CypE [6] = target: T10, CypE; test: Competition anisotropy (fluorescence polarization) binding assay with A26-Fl
Description: (§2) Competition anisotropy binding assay with A26-Fl: Adapted from previous work^54, into a flat-bottom black untreated 96 well plate (Corning), cyclophilin in assay buffer (25 mM HEPES pH 8.0, 100 mM NaCl, 0.01% Triton X-100) at a predetermined concentration from FIG. 27 was incubated with 0.5 nM A26-Fl for 10 minutes at room temperature. Competitor macrocycle was then added to each well and incubated for 24 hours. Final assay volume was 100 μL with 0.25% DMSO. Fluorescence anisotropy was then measured using a Tecan Spark® plate reader using 492 nm/523 nm excitation/emission settings. Raw fluorescence polarization data was normalized to protein+fluorescent probe and buffer+fluorescent probe and Ki values were calculated using one site-competitive binding equation with Prism 9, importing Kd values from A26-Fl (FIGS. 12A-12C).

CypE K217A [7] = target: T11, CypE K217A; test: as above
Description: as §2

CypE [8] = target: T10, CypE; test: Assessment of covalent modification by mass spectrometry; details: after treatment with NaCNBH3
Description: Assessment of covalent modification of CypE and other cyclophilin proteins: Into PCR strip, CypE or other cyclophilin in assay buffer (25 mM HEPES pH 8.0, 100 mM NaCl, 0.01% Triton X-100) was incubated with compound for 1 hour at room temperature. Final concentrations were 20 μM CypE, 100 μM compound, 0.5% DMSO, at a final volume of 20 μL. For analysis of lysine-iminoboronate modification, samples were directly submitted to Harvard's Center for Mass Spectroscopy for LC-MS analysis. For amine-lysine modification, samples were treated with 5 μL of 125 mM sodium cyanoborohydride dissolved in 25 mM Ammonium bicarbonate solution (pH 8.0) and incubated for 4 hours at room temperature. For all other wild-type cyclophilins, protein was treated for 4 hours with C3A, followed by 16 hour treatment with NaCNBH3. Final [NaCNBH3]=25 mM. Samples were then submitted for LC-MS as described above.

| Compound | IC50 (CypA) [nM] | IC50 (CypA E81S/K82R) [nM] | IC50 (CypB) [nM] | IC50 (CypB E121S) [nM] | IC50 (CypD [1]) [nM] | IC50 (CypD K118A) [nM] | IC50 (CypD K118E) [nM] | IC50 (CypD S123E) [nM] | selectivity for CypD over CypA (CypD [3]) [fold] | cyclophilin selectivity profile (in words) (cyclophilins) | potency on cyclophilin mutants compared to wild-type (in words) (cyclophilins) | further results |
| --- | --- | --- | --- | --- | --- | --- | --- | --- | --- | --- | --- | --- |
| CCOC(=O)CC(CC(=O)OCC)c1ccc(-c2ccc(C[C@H]3NC(=O)[C@@]4(Cc5ccccc5)CCCN(C4)C(=O)/C=C/C(=O)NCC[C@H](C(=O)NCCNC(=O)CCCCCN4\C(=C/C=C/C=C/C5=[N+](C)c6ccccc6C5(C)C)C(C)(C)c5ccccc54)NC(=O)Cc4ccccc4CNC3=O)cc2)cc1 [*B53-Et-Cy5] | – | – | – | – | – | – | – | – | – | – | – | CypD prolyl-isomerase inhibition (in words) (CypD [1]): did not potently inhibit; mitochondrial localization (overlap with Mitotracker Green) (HeLa cells): good mitochondrial localization; plasma membrane / mammalian cell permeability (HeLa cells): Strong mammalian cell permeability and mitochondrial localization; hydrolysis of ester prodrug by CES1 [2]: hydrolyzed to their active dicarboxylate forms |
| NCCOCCNC(=O)[C@@H]1CCNC(=O)/C=C/C(=O)N2CCC[C@](Cc3ccccc3)(C2)C(=O)N[C@@H](Cc2ccc(-c3ccc(CC(C(=O)O)C(=O)O)cc3)cc2)C(=O)NCc2ccccc2CC(=O)N1 [Compound B52] | 1100 | 27 | 210 | 8 | 10 | 73 | 300 | 240 | 100 | high potency and selectivity for CypD | little to no ablation of potency | – |
| NCCOCCNC(=O)[C@@H]1CCNC(=O)/C=C/C(=O)N2CCC[C@](Cc3ccccc3)(C2)C(=O)N[C@@H](Cc2ccc(-c3ccc(C(CC(=O)O)CC(=O)O)cc3)cc2)C(=O)NCc2ccccc2CC(=O)N1 [Compound B53] | 3400 | 180 | 1100 | 50 | 57 | 900 | 4000 | 800 | 100 | high potency and selectivity for CypD | little to no ablation of potency | – |
| NC(=O)[C@@H]1CCNC(=O)/C=C/C(=O)N2CCC[C@](Cc3ccccc3)(C2)C(=O)N[C@@H](Cc2ccc(-c3ccc(C=O)c(B(O)O)c3)cc2)C(=O)NCc2ccccc2CC(=O)N1 [Compound C3A] | – | – | – | – | – | – | – | – | – | – | – | CypE potency and selectivity in prolyl isomerase assay (in words) (CypE [4]): good selectivity and potency for CypE; IC50 more potent for CypE than for the other ten cyclophilins screened (CypE [4]): 30-750 fold; higher CypE inhibition potency of C3A over C5A (CypE [4]): 75 fold; selectivity for CypE over CypA (CypE [4]): > 100 fold; IC50 (CypE [4]; wild-type CypE, read-out: IC50 against CypE prolyl isomerase activity): 13 nM; inhibition of CypE K217A compared to wild-type (in words) (CypE K217A [5]): Loss of C3A inhibition potency; less potent at inhibiting K217A prolyl isomerase activity compared to wild-type CypE (CypE K217A [5]): 150 fold; IC50 (CypE K217A [5]; CypE K217A mutant, read-out: IC^CypEK217A50): 2000 nM; Ki (CypE [6]; 0.5 nM A26-Fl, wild-type CypE, read-out: Ki, inhibition of A26-Fl binding to CypE): 72 nM; more potency for CypE than for other tested cyclophilins (CypE [6]; FP competition with A26-Fl, lysine-containing cyclophilins): > 10 fold; CypE binding in FP competition (in words) (CypE [6]; compared to C3A): selectivity for CypE; less potent at competing A26-Fl off of CypE K217A compared to wild-type CypE (CypE K217A [7]): 40 fold; Ki (CypE K217A [7]; 0.5 nM A26-Fl, CypE K217A, read-out: K^CypEK217Ai): 3100 nM; binding to CypE K217A compared to wild-type (in words) (CypE K217A [7]; FP competition with 0.5 nM A26-Fl): significantly attenuated binding; mass shift of covalent adduct with CypE (CypE [8]): 806 Da and 779 Da and 807 Da |
